Reference: patent publication US12662451B2, “Chemical compounds and uses thereof” (GLAXOSMITHKLINE INTELLECTUAL PROPERTY (NO.4) LIMITED, priority 2023, dated 2026)
Where two headings read alike, the source gives them in different places.

Columns and labels:
[1] = target: T1, recombinant full-length WRN protein (1-1432) (Homo sapiens, UniProt Q14191); experiment: WRN unwinding activity, fluorogenic 384-well assay (Example A); type: biochemical; settings: WRN unwinding activity, 4 hr; Table 2; read-out: 4 hr UNW pIC50 (converted)
T1 construct: recombinant full-length WRN protein (1-1432)
T1 sequence (Q14191 whole entry): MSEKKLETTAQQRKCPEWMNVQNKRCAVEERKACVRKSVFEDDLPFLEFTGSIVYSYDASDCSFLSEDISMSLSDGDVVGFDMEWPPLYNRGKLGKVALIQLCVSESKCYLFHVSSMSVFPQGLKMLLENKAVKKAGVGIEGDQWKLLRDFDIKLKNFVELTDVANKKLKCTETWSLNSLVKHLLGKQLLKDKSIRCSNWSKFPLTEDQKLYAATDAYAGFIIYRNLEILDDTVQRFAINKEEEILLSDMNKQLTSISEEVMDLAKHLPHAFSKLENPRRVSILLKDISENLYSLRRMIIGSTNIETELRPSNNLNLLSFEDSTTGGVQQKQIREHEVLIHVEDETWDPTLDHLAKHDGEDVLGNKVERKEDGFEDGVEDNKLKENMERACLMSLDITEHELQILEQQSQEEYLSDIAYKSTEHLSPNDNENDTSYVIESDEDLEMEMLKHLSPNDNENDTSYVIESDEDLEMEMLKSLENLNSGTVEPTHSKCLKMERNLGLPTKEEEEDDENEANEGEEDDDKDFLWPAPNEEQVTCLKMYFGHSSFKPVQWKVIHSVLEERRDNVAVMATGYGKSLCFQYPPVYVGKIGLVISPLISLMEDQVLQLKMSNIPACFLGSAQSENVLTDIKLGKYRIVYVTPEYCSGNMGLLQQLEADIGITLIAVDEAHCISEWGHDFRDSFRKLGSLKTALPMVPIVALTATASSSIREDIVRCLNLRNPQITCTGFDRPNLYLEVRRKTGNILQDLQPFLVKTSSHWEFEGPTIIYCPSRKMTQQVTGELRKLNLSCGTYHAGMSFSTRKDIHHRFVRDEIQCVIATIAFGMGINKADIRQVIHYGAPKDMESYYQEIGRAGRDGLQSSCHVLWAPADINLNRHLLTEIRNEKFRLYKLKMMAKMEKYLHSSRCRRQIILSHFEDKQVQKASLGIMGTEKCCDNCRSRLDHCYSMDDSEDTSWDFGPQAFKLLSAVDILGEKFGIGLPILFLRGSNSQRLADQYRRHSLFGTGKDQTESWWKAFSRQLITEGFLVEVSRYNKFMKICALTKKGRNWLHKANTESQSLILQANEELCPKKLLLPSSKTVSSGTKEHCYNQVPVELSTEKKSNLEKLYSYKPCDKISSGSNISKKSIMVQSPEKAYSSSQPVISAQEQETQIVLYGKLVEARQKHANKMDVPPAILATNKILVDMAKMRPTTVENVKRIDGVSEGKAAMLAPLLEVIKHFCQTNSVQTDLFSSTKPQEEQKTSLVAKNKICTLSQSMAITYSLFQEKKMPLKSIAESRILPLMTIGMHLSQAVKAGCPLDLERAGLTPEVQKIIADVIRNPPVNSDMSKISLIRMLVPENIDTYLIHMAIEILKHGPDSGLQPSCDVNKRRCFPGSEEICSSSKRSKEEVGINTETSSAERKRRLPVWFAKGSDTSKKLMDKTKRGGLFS
How it was run: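 Read-out is end-point unwinding of a fluorophore/quencher duplex (ex 525, em 598 nm) after 60 min with 200 μM ATP and 12 nM DNA (2× stocks), EDTA stop. Compound first sat 4 h with 200 pM WRN (2× stock) in pH 8.0 Tris buffer; four-parameter fit gives pIC50.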

[2] = Cell culture media unbound percentage and stability by rapid equilibrium dialysis (Example C); type: in vitro ADME; settings: bovine, cell assay medium (RPMI-1640 with 10% fetal bovine serum), pH 7.4, rapid equilibrium dialysis, 4 hours at 37° C., read-out: Cell Culture Media Binding (% unbound)
How it was run: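 Percent unbound in cell assay medium came from the LC-MS/MS receiver:donor peak area ratio, with stability taken as the 240 min over 0 min ratio. Set-up: 1 μM nominal compound in medium dialysed against pH 7.4 PBS (100 mM phosphate, 150 mM NaCl), 4 h, 37° C, shaken, in triplicate.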

[3] = test system: SW48 human colorectal cancer cells; experiment: Calculated free drug potency in SW48 cell assay, corrected with media free fraction (Example C); type: cell-based; settings: Homo sapiens, SW48, SW48 pCC50 corrected with measured free fraction in cell assay media
How it was run: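 Free drug potency derives from correcting SW48 assay concentrations with the unbound fraction in medium. That fraction came from RED against pH 7.4 PBS, 1 μM nominal compound, 4 h at 37 °C, quantified by LC-MS/MS peak area ratios at T=240 versus T=0 min.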

[4] = test system: SW48 human colorectal cancer cells (MSI-H cancer cells); experiment: SW48 cell viability, CellTiter-Glo, 120 hours (Example B); settings: Homo sapiens
[5] = SW48, 120 h, read-out: SW48 pCC50, SW48 cell viability, 120 hours incubation (converted), Table 2
[6] = SW48, read-out: SW48 pCC50, measured potency from Example B, as repeated in Table 3 (converted)

IC50 [1] [nM]	fraction unbound at 4 h, 1 µM [2]	SMILES	CC50 [3] [nM]	CC50 [4, 5] [nM]	CC50 [4, 6] [nM]
3.98	0.028	Cc1nc2cc(S(=O)(=O)N(C)c3ccc([C@H]4C[C@H](N5CCCC(F)(F)C5)C[C@@H](C(=O)Nc5ccc(C(F)(F)F)cc5F)[C@@H]4C(=O)O)cc3)ccc2n1C (stereo in doubt) [Example 352, rel-(1R,2R,4S,6S)-4-(3,3-difluoropiperidin-1-yl)-2-((2-fluoro-4-(trifluoromethyl)phenyl)carbamoyl)-6-(4-((N,1,2-trimethyl-1H-benzo[d]imidazole)-5-sulfonamido)phenyl)cyclohexane-1-carboxylic acid]	112	3980	3980
1580	0.169	Cc1nc2cc(S(=O)(=O)N(C)c3ccc([C@@H]4C[C@@H](N5CCCC(F)(F)C5)C[C@H](C(=O)Nc5ccc(C(F)(F)F)cc5F)[C@H]4C(=O)O)cc3)ccc2n1C (stereo in doubt) [Example 362, rel-(1R,2R,4S,6S)-4-(3,3-difluoropiperidin-1-yl)-2-((2-fluoro-4-(trifluoromethyl)phenyl)carbamoyl)-6-(4-((N,1,2-trimethyl-1H-benzo[d]imidazole)-5-sulfonamido)phenyl)cyclohexane-1-carboxylic acid]	1700	10000	–
1.58	0.145	Cc1nc2cc(S(=O)(=O)N(C)c3ccc([C@H]4C[C@@H](OCC5(C)COC5)C[C@@H](C(=O)Nc5ccc(C(F)(F)F)cc5F)[C@@H]4C(=O)O)cc3)ccc2n1C (stereo in doubt) [Example 367, rel-(1R,2R,4R,6S)-2-((2-fluoro-4-(trifluoromethyl)phenyl)carbamoyl)-4-((3-methyloxetan-3-yl)methoxy)-6-(4-((N,1,2-trimethyl-1H-benzo[d]imidazole)-5-sulfonamido)phenyl)cyclohexane-1-carboxylic acid]	11.5	79.4	79.4
79.4	0.308	Cc1nc2cc(S(=O)(=O)N(C)c3ccc([C@@H]4C[C@H](N5CC[C@@H](F)C5)C[C@H](C(=O)Nc5ccc(C(F)(F)F)cc5F)[C@H]4C(=O)O)cc3)ccc2n1C (stereo in doubt) [Example 381, rel-(1R*,2R*,4R*,6S*)-2-((2-fluoro-4-(trifluoromethyl)phenyl)carbamoyl)-4-((R)-3-fluoropyrrolidin-1-yl)-6-(4-((N,1,2-trimethyl-1H-benzo[d]imidazole)-5-sulfonamido)phenyl)cyclohexane-1-carboxylic acid]	2450	7940	7940
1.58	0.136	Cc1nc2cc(S(=O)(=O)N(C)c3ccc([C@H]4C[C@@H](N5CC[C@@H](F)C5)C[C@@H](C(=O)Nc5ccc(C(F)(F)F)cc5F)[C@@H]4C(=O)O)cc3)ccc2n1C (stereo in doubt) [Example 382, rel-(1R*,2R*,4R*,6S*)-2-((2-fluoro-4-(trifluoromethyl)phenyl)carbamoyl)-4-((R)-3-fluoropyrrolidin-1-yl)-6-(4-((N,1,2-trimethyl-1H-benzo[d]imidazole)-5-sulfonamido)phenyl)cyclohexane-1-carboxylic acid]	8.51	63.1	63.1
7.94	0.0589	Cc1nc2cc(S(=O)(=O)N(C)c3ccc([C@H]4C[C@H](N5CC[C@@H](F)C5)C[C@@H](C(=O)Nc5ccc(C(F)(F)F)cc5F)[C@@H]4C(=O)O)cc3)ccc2n1C (stereo in doubt) [Example 383, rel-(1R*,2R*,4S*,6S*)-2-((2-fluoro-4-(trifluoromethyl)phenyl)carbamoyl)-4-((R)-3-fluoropyrrolidin-1-yl)-6-(4-((N,1,2-trimethyl-1H-benzo[d]imidazole)-5-sulfonamido)phenyl)cyclohexane-1-carboxylic acid]	468	7940	7940

Second part, the compound before the results:

SMILES	IC50 [1] [nM]	fraction unbound at 4 h, 1 µM [2]	CC50 [3] [nM]	CC50 [4, 5] [nM]	CC50 [4, 6] [nM]
Cc1nc2cc(S(=O)(=O)N(C)c3ccc([C@H]4C[C@@H](OCC5CCOCC5)C[C@@H](C(=O)Nc5ccc(C(F)(F)F)cc5F)[C@@H]4C(=O)O)cc3)ccc2n1C (stereo in doubt) [Example 355, rel-(1R,2R,4R,6S)-2-((2-fluoro-4-(trifluoromethyl)phenyl)carbamoyl)-4-((tetrahydro-2H-pyran-4-yl)methoxy)-6-(4-((N,1,2-trimethyl-1H-benzo[d]imidazole)-5-sulfonamido)phenyl)cyclohexane-1-carboxylic acid]	3.98	0.128	12.9	100	100
Cc1nc2cc(S(=O)(=O)N(C)c3ccc([C@H]4C[C@@H](N5CC[C@H](F)C5)C[C@@H](C(=O)Nc5ccc(C(F)(F)F)cc5F)[C@@H]4C(=O)O)cc3)ccc2n1C (stereo in doubt) [Example 377, rel-(1R*,2R*,4R*,6S*)-2-((2-fluoro-4-(trifluoromethyl)phenyl)carbamoyl)-4-((S)-3-fluoropyrrolidin-1-yl)-6-(4-((N,1,2-trimethyl-1H-benzo[d]imidazole)-5-sulfonamido)phenyl)cyclohexane-1-carboxylic acid]	5.01	0.071	8.91	126	126
Cc1nc2cc(S(=O)(=O)N(C)c3ccc([C@@H]4C[C@H](N5CC[C@H](F)C5)C[C@H](C(=O)Nc5ccc(C(F)(F)F)cc5F)[C@H]4C(=O)O)cc3)ccc2n1C (stereo in doubt) [Example 378, rel-(1R*,2R*,4R*,6S*)-2-((2-fluoro-4-(trifluoromethyl)phenyl)carbamoyl)-4-((S)-3-fluoropyrrolidin-1-yl)-6-(4-((N,1,2-trimethyl-1H-benzo[d]imidazole)-5-sulfonamido)phenyl)cyclohexane-1-carboxylic acid]	50.1	0.208	832	3980	3980
Cc1nc2cc(S(=O)(=O)N(C)c3ccc([C@H]4C[C@H](N5CC[C@H](F)C5)C[C@@H](C(=O)Nc5ccc(C(F)(F)F)cc5F)[C@@H]4C(=O)O)cc3)ccc2n1C (stereo in doubt) [Example 380, rel-(1R*,2R*,4S*,6S*)-2-((2-fluoro-4-(trifluoromethyl)phenyl)carbamoyl)-4-((S)-3-fluoropyrrolidin-1-yl)-6-(4-((N,1,2-trimethyl-1H-benzo[d]imidazole)-5-sulfonamido)phenyl)cyclohexane-1-carboxylic acid]	39.8	0.0334	331	10000	–
Cc1cc(N(C)S(=O)(=O)c2ccc3c(c2)nc(C)n3C)ccc1[C@H]1CCC[C@@H](C(=O)Nc2ccc(C(F)(F)F)cc2F)[C@@H]1C(=O)O (stereo in doubt) [Example 386, rel-(1R,2R,6S)-2-((2-fluoro-4-(trifluoromethyl)phenyl)carbamoyl)-6-(2-methyl-4-((N,1,2-trimethyl-1H-benzo[d]imidazole)-5-sulfonamido)phenyl)cyclohexane-1-carboxylic acid]	3.98	0.1	200	2000	2000
